Source: PubChem BioAssay (NCI)
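Each compound was tested at five concentrations against cells in 96-well plates for 48 hours. GI50 marks 50% less growth. TGI denotes the concentration required for complete inhibition of growth.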

Tests used:
Test in all cases: NCI tumour cell line growth inhibition, 48 h
786-0 renal = test system: 786-0 renal
A498 renal = test system: A498 renal
A549 NSCLC = test system: A549 NSCLC
ACHN renal = test system: ACHN renal
BT-549 breast = test system: BT-549 breast
CAKI-1 renal = test system: CAKI-1 renal
CCRF-CEM leukemia = test system: CCRF-CEM leukemia
COLO 205 colon = test system: COLO 205 colon
DU-145 prostate = test system: DU-145 prostate
HCC-2998 colon = test system: HCC-2998 colon
HCT-116 colon = test system: HCT-116 colon
HCT-15 colon = test system: HCT-15 colon
HL-60(TB) leukemia = test system: HL-60(TB) leukemia
HOP-62 NSCLC = test system: HOP-62 NSCLC
HOP-92 NSCLC = test system: HOP-92 NSCLC
HS 578T breast = test system: HS 578T breast
HT29 colon = test system: HT29 colon
IGROV1 ovarian = test system: IGROV1 ovarian
K-562 leukemia = test system: K-562 leukemia
KM12 colon = test system: KM12 colon
LOX IMVI melanoma = test system: LOX IMVI melanoma
M14 melanoma = test system: M14 melanoma
MALME-3M melanoma = test system: MALME-3M melanoma
MCF7 breast = test system: MCF7 breast
MDA-MB-231 breast = test system: MDA-MB-231 breast
MDA-MB-435 = test system: MDA-MB-435
MOLT-4 leukemia = test system: MOLT-4 leukemia
NCI-H226 lung = test system: NCI-H226 lung
NCI-H23 lung = test system: NCI-H23 lung
NCI-H460 lung = test system: NCI-H460 lung
NCI-H522 lung = test system: NCI-H522 lung
NCI/ADR-RES ovarian = test system: NCI/ADR-RES ovarian
OVCAR-3 ovarian = test system: OVCAR-3 ovarian
OVCAR-4 ovarian = test system: OVCAR-4 ovarian
OVCAR-5 ovarian = test system: OVCAR-5 ovarian
OVCAR-8 ovarian = test system: OVCAR-8 ovarian
PC-3 prostate = test system: PC-3 prostate
RPMI-8226 leukemia = test system: RPMI-8226 leukemia
RXF 393 renal = test system: RXF 393 renal
SF-268 CNS = test system: SF-268 CNS
SF-295 CNS = test system: SF-295 CNS
SF-539 CNS = test system: SF-539 CNS
SK-MEL-2 melanoma = test system: SK-MEL-2 melanoma
SK-MEL-28 melanoma = test system: SK-MEL-28 melanoma
SK-MEL-5 melanoma = test system: SK-MEL-5 melanoma
SK-OV-3 ovarian = test system: SK-OV-3 ovarian
SN12C renal = test system: SN12C renal
SNB-19 CNS = test system: SNB-19 CNS
SNB-75 CNS = test system: SNB-75 CNS
SR leukemia = test system: SR leukemia
SW-620 colon = test system: SW-620 colon
T-47D breast = test system: T-47D breast
TK-10 renal = test system: TK-10 renal
U251 CNS = test system: U251 CNS
UACC-257 melanoma = test system: UACC-257 melanoma
UACC-62 melanoma = test system: UACC-62 melanoma
UO-31 renal = test system: UO-31 renal

With `O=C1/C(=C/c2ccc(Cl)cc2)CN(Cc2cn(CCCNc3ccnc4cc(Cl)ccc34)nn2)C/C1=C\c1ccc(Cl)cc1` the GI50 (786-0 renal) was 754 nM, the TGI (786-0 renal) was 2060 nM and the GI50 (A498 renal) was 1230 nM. The TGI (A498 renal) was 2530 nM, the GI50 (A549 NSCLC) was 1150 nM and the TGI (A549 NSCLC) was 2560 nM. The GI50 (ACHN renal) was 1450 nM, the TGI (ACHN renal) was 2840 nM and the GI50 (BT-549 breast) was 1640 nM. It also gave a TGI (BT-549 breast) of 3180 nM, a GI50 (CAKI-1 renal) of 734 nM and a TGI (CAKI-1 renal) of 2920 nM. It also gave a GI50 (CCRF-CEM leukemia) of 426 nM, a TGI (CCRF-CEM leukemia) of over 20500 nM and a GI50 (COLO 205 colon) of 565 nM. For the same compound, the TGI (COLO 205 colon) was 1800 nM, the GI50 (DU-145 prostate) was 1160 nM and the TGI (DU-145 prostate) was 2470 nM. For the same compound, the GI50 (HCC-2998 colon) was 273 nM, the TGI (HCC-2998 colon) was 712 nM and the GI50 (HCT-116 colon) was 305 nM. The TGI (HCT-116 colon) was 833 nM, the GI50 (HCT-15 colon) was 283 nM and the TGI (HCT-15 colon) was 926 nM. It also gave a GI50 (HL-60(TB) leukemia) of 809 nM, a TGI (HL-60(TB) leukemia) of 3330 nM and a GI50 (HOP-62 NSCLC) of 1470 nM. It also gave a TGI (HOP-62 NSCLC) of 2940 nM, a GI50 (HOP-92 NSCLC) of 1460 nM and a TGI (HOP-92 NSCLC) of 3180 nM. The GI50 (HS 578T breast) was 1390 nM, the TGI (HS 578T breast) was 5950 nM and the GI50 (HT29 colon) was 270 nM. It also gave a TGI (HT29 colon) of 775 nM, a GI50 (IGROV1 ovarian) of 1290 nM and a TGI (IGROV1 ovarian) of 3120 nM. For the same compound, the GI50 (K-562 leukemia) was 289 nM, the TGI (K-562 leukemia) was 3790 nM and the GI50 (KM12 colon) was 291 nM. It also gave a TGI (KM12 colon) of 1110 nM, a GI50 (LOX IMVI melanoma) of 249 nM and a TGI (LOX IMVI melanoma) of 719 nM. The GI50 (M14 melanoma) was 1720 nM, the TGI (M14 melanoma) was 3680 nM and the GI50 (MALME-3M melanoma) was 1710 nM. For the same compound, the TGI (MALME-3M melanoma) was 3280 nM, the GI50 (MCF7 breast) was 362 nM and the TGI (MCF7 breast) was 1460 nM. For the same compound, the GI50 (MDA-MB-231 breast) was 757 nM, the TGI (MDA-MB-231 breast) was 2450 nM and the GI50 (MDA-MB-435) was 1300 nM. For the same compound, the TGI (MDA-MB-435) was 2690 nM, the GI50 (MOLT-4 leukemia) was 878 nM and the TGI (MOLT-4 leukemia) was over 24500 nM. For the same compound, the GI50 (NCI-H226 lung) was 1920 nM, the TGI (NCI-H226 lung) was 4390 nM and the GI50 (NCI-H23 lung) was 1260 nM. For the same compound, the TGI (NCI-H23 lung) was 3820 nM, the GI50 (NCI-H460 lung) was 429 nM and the TGI (NCI-H460 lung) was 2060 nM. The GI50 (NCI-H522 lung) was 1610 nM, the TGI (NCI-H522 lung) was 3170 nM and the GI50 (NCI/ADR-RES ovarian) was 1650 nM. It also gave a TGI (NCI/ADR-RES ovarian) of 6510 nM, a GI50 (OVCAR-3 ovarian) of 560 nM and a TGI (OVCAR-3 ovarian) of 1850 nM. The GI50 (OVCAR-4 ovarian) was 500 nM, the TGI (OVCAR-4 ovarian) was 2380 nM and the GI50 (OVCAR-5 ovarian) was 1260 nM. The TGI (OVCAR-5 ovarian) was 3060 nM, the GI50 (OVCAR-8 ovarian) was 572 nM and the TGI (OVCAR-8 ovarian) was 1410 nM. The GI50 (PC-3 prostate) was 391 nM, the TGI (PC-3 prostate) was 1590 nM and the GI50 (RPMI-8226 leukemia) was 285 nM. For the same compound, the TGI (RPMI-8226 leukemia) was 878 nM, the GI50 (RXF 393 renal) was 1650 nM and the TGI (RXF 393 renal) was 3150 nM. It also gave a GI50 (SF-268 CNS) of 540 nM, a TGI (SF-268 CNS) of 2010 nM and a GI50 (SF-295 CNS) of 708 nM. It also gave a TGI (SF-295 CNS) of 1840 nM, a GI50 (SF-539 CNS) of 645 nM and a TGI (SF-539 CNS) of 1720 nM. For the same compound, the GI50 (SK-MEL-2 melanoma) was 2030 nM, the TGI (SK-MEL-2 melanoma) was 3710 nM and the GI50 (SK-MEL-28 melanoma) was 1820 nM. For the same compound, the TGI (SK-MEL-28 melanoma) was 3410 nM, the GI50 (SK-MEL-5 melanoma) was 1720 nM and the TGI (SK-MEL-5 melanoma) was 3140 nM. It also gave a GI50 (SK-OV-3 ovarian) of 1840 nM, a TGI (SK-OV-3 ovarian) of 3520 nM and a GI50 (SN12C renal) of 960 nM. For the same compound, the TGI (SN12C renal) was 2770 nM, the GI50 (SNB-19 CNS) was 643 nM and the TGI (SNB-19 CNS) was 1860 nM. It also gave a GI50 (SNB-75 CNS) of 1390 nM, a TGI (SNB-75 CNS) of 2920 nM and a GI50 (SR leukemia) of 379 nM. For the same compound, the TGI (SR leukemia) was 1930 nM, the GI50 (SW-620 colon) was 316 nM and the TGI (SW-620 colon) was 1370 nM. The GI50 (T-47D breast) was 1950 nM, the TGI (T-47D breast) was 6370 nM and the GI50 (TK-10 renal) was 1700 nM. It also gave a TGI (TK-10 renal) of 3150 nM, a GI50 (U251 CNS) of 269 nM and a TGI (U251 CNS) of 900 nM. It also gave a GI50 (UACC-257 melanoma) of 1720 nM, a TGI (UACC-257 melanoma) of 3250 nM and a GI50 (UACC-62 melanoma) of 1770 nM. It also gave a TGI (UACC-62 melanoma) of 3350 nM, a GI50 (UO-31 renal) of 1160 nM and a TGI (UO-31 renal) of 2450 nM.
